Experimental data: US20260232767A1, “INTERLEUKIN-23 RECEPTOR ANTAGONIST PEPTIDES FOR USE IN THE TREATMENT OF PSORIASIS” (Janssen Pharmaceutica NV, priority 2023, published 2026)

System: subjects with moderate-to-severe plaque psoriasis
Experiment: Safety, adverse events, Example 2 through Week 56
Assay type: in vivo, human
Details: 50 mg QD
From the text: The LTE safety analysis was based on randomized participants in Example who entered the present long-term extension study and received at least one dose of study intervention (including a partial dose) during the study period.

With `CC(=O)NCCCC[C@@H]1NC(=O)[C@H](Cc2c[nH]c3c(C)cccc23)NC(=O)[C@H]([C@@H](C)O)NC(=O)[C@H](CC(N)=O)NC(=O)[C@@H](NC(C)=O)C(C)(C)SSC(C)(C)[C@@H](C(=O)N[C@@H](Cc2ccc(OCCN)cc2)C(=O)N[C@@H](Cc2ccc3ccccc3c2)C(=O)NC2(C(=O)N[C@@H](CCC(=O)O)C(=O)N[C@@H](CC(N)=O)C(=O)N[C@@H](Cc3cccnc3)C(=O)N(C)CC(N)=O)CCOCC2)NC1=O` [IL-23 receptor antagonist peptide, Ac-[Pen]*-N-T-[W(7-Me)]-[Lys(Ac)]-[Pen]*-Phe[4-(2-aminoethoxy)]-[2-Nal]-[THP]-E-N-[3-Pal]-Sarc-NH2 (*[Pen]-[Pen]* formdisulfidebond)] the “Subjects with AE leading to discontinuation: Insomnia” value (Week 16-56) was 0, the “Subjects with AE leading to discontinuation: Investigations” value (Week 16-56) was 0 and the “Subjects with AE leading to discontinuation: Nervous system disorders” value (Week 16-56) was 0. The “Subjects with AE leading to discontinuation: Proctalgia” value (Week 16-56) was 0, the “Subjects with AE leading to discontinuation: Psoriasis” value (Week 16-56) was 0 and the “Subjects with AE leading to discontinuation: Psychiatric disorders” value (Week 16-56) was 0. The “Subjects with AE leading to discontinuation: Skin and subcutaneous tissue disorders” value (Week 16-56) was 0, the “Subjects with AE leading to discontinuation: Vertigo” value (Week 16-56) was 0 and the “Subjects with AE leading to discontinuation: Vomiting” value (Week 16-56) was 0. The “Subjects with COVID-19 associated AE of interest: SARS-CoV-2 test positive” value (Week 16-56) was 0, the “Subjects with treatment-emergent AE: Headache” value (Week 16-56) was 0 and the “Subjects with treatment-emergent AE: Meniscus injury” value (Week 16-56) was 0. The “Subjects with treatment-emergent AE: Nervous system disorders” value (Week 16-56) was 0, the “Subjects with treatment-emergent AE: Vomiting” value (Week 16-56) was 0 and the “Subjects with treatment-emergent serious AE: Cerebrovascular accident” value (Week 16-56) was 0. The “Subjects with treatment-emergent serious AE: Diverticulitis” value (Week 16-56) was 0, the “Subjects with treatment-emergent serious AE: Infections and infestations” value (Week 16-56) was 0 and the “Subjects with treatment-emergent serious AE: Injury, poisoning and procedural complications” value (Week 16-56) was 0. For the same molecule, the “Subjects with treatment-emergent serious AE: Intervertebral disc protrusion” value (Week 16-56) was 0, the “Subjects with treatment-emergent serious AE: Ligament injury” value (Week 16-56) was 0 and the “Subjects with treatment-emergent serious AE: Neoplasms benign, malignant and unspecified (incl cysts and polyps)” value (Week 16-56) was 0. For the same molecule, the “Subjects with treatment-emergent serious AE: Nervous system disorders” value (Week 16-56) was 0, the “Subjects with treatment-emergent serious AE: Respiratory, thoracic and mediastinal disorders” value (Week 16-56) was 0 and the “Subjects with treatment-emergent serious AE: Tonsillar hypertrophy” value (Week 16-56) was 0. The “Subjects with treatment-emergent serious AE: Uterine leiomyoma” value (Week 16-56) was 0, the “Subjects with treatment-emergent serious AE: Ventricular dysfunction” value (Week 16-56) was 0 and the “Acrochordon: number of subjects” value (through Week 56) was 0. For the same molecule, the “Actinic keratosis: % of subjects” value (through Week 56) was “(2.3%)”, the “Actinic keratosis: number of subjects” value (through Week 56) was 1 and the “Alopecia: number of subjects” value (through Week 56) was 0. The “Asthenia: number of subjects” value (through Week 56) was 0, the “Asthma: number of subjects” value (through Week 56) was 0 and the “Atrioventricular block first degree: number of subjects” value (through Week 56) was 0. The “Basal cell carcinoma: % of subjects” value (through Week 56) was “(2.3%)”, the “Basal cell carcinoma: number of subjects” value (through Week 56) was 1 and the “Blood and lymphatic system disorders: % of subjects” value (through Week 56) was “(7.0%)”. The “Blood and lymphatic system disorders: number of subjects” value (through Week 56) was 3, the “Bronchitis chronic: number of subjects” value (through Week 56) was 0 and the “Bundle branch block right: number of subjects” value (through Week 56) was 0. For the same molecule, the “Cardiac disorders: % of subjects” value (through Week 56) was “(2.3%)”, the “Cardiac disorders: number of subjects” value (through Week 56) was 1 and the “Chills: number of subjects” value (through Week 56) was 0. For the same molecule, the “Cholelithiasis: number of subjects” value (through Week 56) was 0, the “Chronic obstructive pulmonary disease: number of subjects” value (through Week 56) was 0 and the “Coronary artery disease: % of subjects” value (through Week 56) was “(2.3%)”. The “Coronary artery disease: number of subjects” value (through Week 56) was 1, the “Cough: % of subjects” value (through Week 56) was “(4.7%)” and the “Cough: number of subjects” value (through Week 56) was 2. The “Decreased appetite: number of subjects” value (through Week 56) was 0, the “Depression: number of subjects” value (through Week 56) was 0 and the “Dermal cyst: number of subjects” value (through Week 56) was 0. The “Dermatitis acneiform: number of subjects” value (through Week 56) was 0, the “Dermatitis contact: % of subjects” value (through Week 56) was “(2.3%)” and the “Dermatitis contact: number of subjects” value (through Week 56) was 1. The “Diabetes mellitus: number of subjects” value (through Week 56) was 0, the “Diffuse alopecia: number of subjects” value (through Week 56) was 0 and the “Dysuria: number of subjects” value (through Week 56) was 0. For the same molecule, the “Ear and labyrinth disorders: number of subjects” value (through Week 56) was 0, the “Endocrine disorders: number of subjects” value (through Week 56) was 0 and the “Eye disorders: number of subjects” value (through Week 56) was 0. For the same molecule, the “Eyelid skin dryness: number of subjects” value (through Week 56) was 0, the “Fatigue: % of subjects” value (through Week 56) was “(2.3%)” and the “Fatigue: number of subjects” value (through Week 56) was 1. The “General disorders and administration site conditions: % of subjects” value (through Week 56) was “(7.0%)”, the “General disorders and administration site conditions: number of subjects” value (through Week 56) was 3 and the “Goiter: number of subjects” value (through Week 56) was 0. For the same molecule, the “Haemochromatosis: number of subjects” value (through Week 56) was 0, the “Hand dermatitis: number of subjects” value (through Week 56) was 0 and the “Hematuria: % of subjects” value (through Week 56) was “(2.3%)”. For the same molecule, the “Hematuria: number of subjects” value (through Week 56) was 1, the “Hepatobiliary disorders: number of subjects” value (through Week 56) was 0 and the “Hypercholesterolemia: number of subjects” value (through Week 56) was 0. The “Hyperglycemia: % of subjects” value (through Week 56) was “(2.3%)”, the “Hyperglycemia: number of subjects” value (through Week 56) was 1 and the “Hyperlipidemia: number of subjects” value (through Week 56) was 0. For the same molecule, the “Hypertension: % of subjects” value (through Week 56) was “(2.3%)”, the “Hypertension: number of subjects” value (through Week 56) was 1 and the “Hypertransaminasemia: number of subjects” value (through Week 56) was 0. The “Hypertriglyceridemia: number of subjects” value (through Week 56) was 0, the “Hypoacusis: number of subjects” value (through Week 56) was 0 and the “Immune system disorders: % of subjects” value (through Week 56) was “(2.3%)”. For the same molecule, the “Immune system disorders: number of subjects” value (through Week 56) was 1, the “Influenza like illness: number of subjects” value (through Week 56) was 0 and the “Insomnia: number of subjects” value (through Week 56) was 0. The “Intertrigo: number of subjects” value (through Week 56) was 0, the “Ketonuria: number of subjects” value (through Week 56) was 0 and the “Leukocyturia: number of subjects” value (through Week 56) was 0. The “Leukopenia: % of subjects” value (through Week 56) was “(2.3%)”, the “Leukopenia: number of subjects” value (through Week 56) was 1 and the “Libido decreased: number of subjects” value (through Week 56) was 0. For the same molecule, the “Liver disorder: number of subjects” value (through Week 56) was 0, the “Lymphopenia: % of subjects” value (through Week 56) was “(4.7%)” and the “Lymphopenia: number of subjects” value (through Week 56) was 2. For the same molecule, the “Menopause: % of subjects” value (through Week 56) was “(2.3%)”, the “Menopause: number of subjects” value (through Week 56) was 1 and the “Metabolism and nutrition disorders: % of subjects” value (through Week 56) was “(2.3%)”. For the same molecule, the “Metabolism and nutrition disorders: number of subjects” value (through Week 56) was 1, the “Neoplasms benign, malignant and unspecified (incl cysts and polyps): % of subjects” value (through Week 56) was “(4.7%)” and the “Neoplasms benign, malignant and unspecified (incl cysts and polyps): number of subjects” value (through Week 56) was 2. The “Nephrolithiasis: number of subjects” value (through Week 56) was 0, the “Neutropenia: % of subjects” value (through Week 56) was “(4.7%)” and the “Neutropenia: number of subjects” value (through Week 56) was 2. For the same molecule, the “Night sweats: % of subjects” value (through Week 56) was “(2.3%)”, the “Night sweats: number of subjects” value (through Week 56) was 1 and the “Non-cardiac chest pain: % of subjects” value (through Week 56) was “(2.3%)”. For the same molecule, the “Non-cardiac chest pain: number of subjects” value (through Week 56) was 1, the “Ocular cyst: number of subjects” value (through Week 56) was 0 and the “Oedema peripheral: % of subjects” value (through Week 56) was “(2.3%)”. The “Oedema peripheral: number of subjects” value (through Week 56) was 1, the “Oropharyngeal pain: number of subjects” value (through Week 56) was 0 and the “Procedural pain: number of subjects” value (through Week 56) was 0. For the same molecule, the “Productive cough: number of subjects” value (through Week 56) was 0, the “Proteinuria: number of subjects” value (through Week 56) was 0 and the “Pruritus: % of subjects” value (through Week 56) was “(2.3%)”. For the same molecule, the “Pruritus: number of subjects” value (through Week 56) was 1, the “Psoriasis: number of subjects” value (through Week 56) was 0 and the “Psychiatric disorders: number of subjects” value (through Week 56) was 0. The “Pyrexia: number of subjects” value (through Week 56) was 0, the “Rash pruritic: number of subjects” value (through Week 56) was 0 and the “Renal and urinary disorders: % of subjects” value (through Week 56) was “(2.3%)”. For the same molecule, the “Renal and urinary disorders: number of subjects” value (through Week 56) was 1.
